# Data published in ChEMBL document CHEMBL5291721, “A preclinical secondary pharmacology resource illuminates target-adverse drug reaction associations of marketed drugs” (Nat Commun, 2023).
# Tests used:
# [1] = target: Sodium-dependent dopamine transporter (Homo sapiens, UniProt Q01959)
# [2] = target: T1, Alpha-2A adrenergic receptor (Homo sapiens, UniProt P08913)
# T1 sequence (P08913 whole entry): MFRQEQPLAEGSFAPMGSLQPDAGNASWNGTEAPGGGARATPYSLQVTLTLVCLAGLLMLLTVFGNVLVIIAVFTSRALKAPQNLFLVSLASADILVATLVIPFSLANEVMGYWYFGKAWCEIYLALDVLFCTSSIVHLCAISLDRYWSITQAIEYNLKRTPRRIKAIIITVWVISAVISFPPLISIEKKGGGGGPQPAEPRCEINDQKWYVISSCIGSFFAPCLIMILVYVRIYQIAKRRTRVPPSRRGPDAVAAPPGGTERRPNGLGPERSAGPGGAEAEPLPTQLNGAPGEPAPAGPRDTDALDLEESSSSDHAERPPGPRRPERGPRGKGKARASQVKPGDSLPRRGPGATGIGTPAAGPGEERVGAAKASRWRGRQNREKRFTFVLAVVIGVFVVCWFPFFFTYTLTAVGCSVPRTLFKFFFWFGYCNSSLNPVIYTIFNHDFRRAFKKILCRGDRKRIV
# Progesterone receptor = target: T2, Progesterone receptor (Homo sapiens, UniProt P06401)
# T2 sequence (P06401 whole entry): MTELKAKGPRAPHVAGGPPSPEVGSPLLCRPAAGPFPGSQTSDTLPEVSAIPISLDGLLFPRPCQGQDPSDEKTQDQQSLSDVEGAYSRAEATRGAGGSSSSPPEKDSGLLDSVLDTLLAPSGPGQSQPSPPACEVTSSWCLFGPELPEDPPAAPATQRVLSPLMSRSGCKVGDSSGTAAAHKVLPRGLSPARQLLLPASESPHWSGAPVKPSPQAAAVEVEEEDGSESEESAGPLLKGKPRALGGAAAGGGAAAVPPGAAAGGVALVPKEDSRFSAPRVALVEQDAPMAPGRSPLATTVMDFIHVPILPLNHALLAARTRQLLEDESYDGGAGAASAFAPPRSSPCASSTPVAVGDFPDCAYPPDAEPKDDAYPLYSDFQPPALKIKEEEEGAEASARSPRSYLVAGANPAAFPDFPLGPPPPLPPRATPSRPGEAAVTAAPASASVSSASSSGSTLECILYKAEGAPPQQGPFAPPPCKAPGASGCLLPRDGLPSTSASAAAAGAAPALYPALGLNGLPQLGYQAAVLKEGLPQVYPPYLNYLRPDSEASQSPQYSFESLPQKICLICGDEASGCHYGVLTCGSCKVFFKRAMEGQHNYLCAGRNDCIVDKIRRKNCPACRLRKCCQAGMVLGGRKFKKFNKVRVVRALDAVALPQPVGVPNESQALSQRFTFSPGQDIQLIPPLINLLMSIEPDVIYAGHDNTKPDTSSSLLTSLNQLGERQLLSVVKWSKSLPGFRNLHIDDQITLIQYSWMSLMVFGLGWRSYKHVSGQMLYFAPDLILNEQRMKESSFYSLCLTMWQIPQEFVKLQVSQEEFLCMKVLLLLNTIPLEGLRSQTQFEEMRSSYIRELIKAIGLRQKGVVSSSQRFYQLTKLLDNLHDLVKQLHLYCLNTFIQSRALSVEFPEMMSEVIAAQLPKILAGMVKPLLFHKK
# Prothrombin = Prothrombin (Homo sapiens, UniProt P00734); type: functional
# Vasopressin V1a receptor = Vasopressin V1a receptor (Homo sapiens, UniProt P37288)
# [3] = target: T3, Type-1 angiotensin II receptor (Homo sapiens, UniProt P30556)
# T3 sequence (P30556 whole entry): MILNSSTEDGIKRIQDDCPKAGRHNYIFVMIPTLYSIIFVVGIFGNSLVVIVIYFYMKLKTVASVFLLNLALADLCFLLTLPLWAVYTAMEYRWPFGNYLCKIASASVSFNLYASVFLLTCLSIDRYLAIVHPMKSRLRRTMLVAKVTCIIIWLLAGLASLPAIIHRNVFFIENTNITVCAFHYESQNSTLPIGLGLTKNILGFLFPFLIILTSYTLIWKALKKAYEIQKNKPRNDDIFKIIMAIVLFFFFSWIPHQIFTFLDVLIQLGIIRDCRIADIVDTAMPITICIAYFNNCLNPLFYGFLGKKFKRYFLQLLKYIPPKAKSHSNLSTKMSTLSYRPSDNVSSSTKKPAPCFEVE
# [4] = target: T4, 5-hydroxytryptamine receptor 2C (Homo sapiens, UniProt P28335)
# T4 sequence (P28335 whole entry): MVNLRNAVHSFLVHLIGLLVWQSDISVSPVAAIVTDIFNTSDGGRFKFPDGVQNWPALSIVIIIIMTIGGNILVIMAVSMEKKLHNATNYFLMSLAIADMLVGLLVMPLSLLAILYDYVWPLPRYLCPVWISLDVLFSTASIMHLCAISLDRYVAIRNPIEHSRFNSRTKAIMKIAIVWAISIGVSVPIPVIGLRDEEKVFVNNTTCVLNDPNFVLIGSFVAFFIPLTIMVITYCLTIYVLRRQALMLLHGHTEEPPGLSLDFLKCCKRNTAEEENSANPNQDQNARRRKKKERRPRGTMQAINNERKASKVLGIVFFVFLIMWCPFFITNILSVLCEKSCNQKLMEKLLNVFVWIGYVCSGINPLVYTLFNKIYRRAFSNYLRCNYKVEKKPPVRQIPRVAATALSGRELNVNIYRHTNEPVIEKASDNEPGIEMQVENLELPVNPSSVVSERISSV
# Melanocortin receptor 3 = Melanocortin receptor 3 (Homo sapiens, UniProt P41968)
# [5] = target: T5, 5-hydroxytryptamine receptor 1A (Homo sapiens, UniProt P08908); type: functional, cell-based
# T5 sequence (P08908 whole entry): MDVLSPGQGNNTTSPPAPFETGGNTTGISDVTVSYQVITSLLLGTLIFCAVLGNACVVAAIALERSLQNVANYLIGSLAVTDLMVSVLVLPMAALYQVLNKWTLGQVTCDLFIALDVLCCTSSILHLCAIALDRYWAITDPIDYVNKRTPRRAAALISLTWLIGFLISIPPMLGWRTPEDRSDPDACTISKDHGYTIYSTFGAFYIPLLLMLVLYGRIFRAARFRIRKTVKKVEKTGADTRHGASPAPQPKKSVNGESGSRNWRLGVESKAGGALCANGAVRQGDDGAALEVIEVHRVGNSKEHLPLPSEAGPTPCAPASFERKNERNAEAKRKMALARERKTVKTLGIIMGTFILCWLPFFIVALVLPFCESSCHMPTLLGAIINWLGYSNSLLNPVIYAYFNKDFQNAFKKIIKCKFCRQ
# Also: assay procedure not described here.
# Sequence of Sodium-dependent dopamine transporter (Q01959 whole entry): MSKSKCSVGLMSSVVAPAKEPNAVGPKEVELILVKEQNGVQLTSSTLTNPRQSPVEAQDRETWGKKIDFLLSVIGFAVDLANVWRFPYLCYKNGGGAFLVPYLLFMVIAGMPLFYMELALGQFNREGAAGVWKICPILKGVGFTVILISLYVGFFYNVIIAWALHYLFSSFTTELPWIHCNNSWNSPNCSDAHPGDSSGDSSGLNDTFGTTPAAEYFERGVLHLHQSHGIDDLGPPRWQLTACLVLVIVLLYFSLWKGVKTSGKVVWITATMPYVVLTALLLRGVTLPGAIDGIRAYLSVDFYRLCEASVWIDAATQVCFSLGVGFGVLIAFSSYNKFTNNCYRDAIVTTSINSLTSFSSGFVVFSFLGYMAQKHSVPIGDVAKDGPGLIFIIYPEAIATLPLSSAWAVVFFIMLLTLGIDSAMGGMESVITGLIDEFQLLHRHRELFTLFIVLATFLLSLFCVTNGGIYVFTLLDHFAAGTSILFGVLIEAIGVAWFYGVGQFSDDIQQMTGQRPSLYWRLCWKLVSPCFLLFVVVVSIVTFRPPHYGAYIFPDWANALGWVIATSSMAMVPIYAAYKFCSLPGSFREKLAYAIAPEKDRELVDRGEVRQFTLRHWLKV
# Sequence of Vasopressin V1a receptor (P37288 whole entry): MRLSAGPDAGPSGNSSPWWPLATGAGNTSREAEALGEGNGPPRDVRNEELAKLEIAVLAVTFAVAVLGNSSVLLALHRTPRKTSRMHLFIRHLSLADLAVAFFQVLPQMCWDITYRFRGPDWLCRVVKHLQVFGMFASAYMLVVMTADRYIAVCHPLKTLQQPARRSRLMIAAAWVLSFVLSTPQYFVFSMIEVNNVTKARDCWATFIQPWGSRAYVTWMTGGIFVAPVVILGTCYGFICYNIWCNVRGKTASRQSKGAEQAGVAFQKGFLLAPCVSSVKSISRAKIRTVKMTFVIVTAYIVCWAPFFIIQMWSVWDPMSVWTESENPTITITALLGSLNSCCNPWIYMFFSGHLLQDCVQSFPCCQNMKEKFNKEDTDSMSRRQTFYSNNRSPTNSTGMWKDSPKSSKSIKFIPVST
# Sequence of Melanocortin receptor 3 (P41968 whole entry): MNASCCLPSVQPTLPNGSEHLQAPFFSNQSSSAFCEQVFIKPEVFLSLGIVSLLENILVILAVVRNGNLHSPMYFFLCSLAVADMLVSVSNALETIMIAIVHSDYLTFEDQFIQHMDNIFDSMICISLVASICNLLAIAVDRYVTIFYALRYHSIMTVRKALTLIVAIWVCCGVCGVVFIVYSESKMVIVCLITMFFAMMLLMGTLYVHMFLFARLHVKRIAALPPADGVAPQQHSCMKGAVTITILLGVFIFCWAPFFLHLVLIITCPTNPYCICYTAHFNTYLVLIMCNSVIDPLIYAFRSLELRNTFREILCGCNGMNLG
Structure (SMILES),AC50 [1] [µM],AC50 [2] [µM],AC50 (Progesterone receptor) [µM],AC50 (Prothrombin) [µM],AC50 (Vasopressin V1a receptor) [µM],AC50 [3] [µM],AC50 [4] [µM],AC50 (Melanocortin receptor 3) [µM],AC50 [5] [µM]
O=C(O)c1cc(/N=N/c2ccc(O)c(C(=O)O)c2)ccc1O [OLSALAZINE],> 30,> 30,> 30,> 30,–,–,–,–,–
FC(F)(F)c1ccc(CNc2ccc(Cc3c[nH]c4ncc(Cl)cc34)cn2)cn1 [PEXIDARTINIB],9.3,17.1,9.95,> 30,–,–,–,–,–
CC(C)C[C@H](NC(=O)CNC(=O)c1cc(Cl)ccc1Cl)B(O)O [IXAZOMIB],> 30,> 30,> 30,> 30,–,–,–,–,–
CC(CN1CC(=O)NC(=O)C1)N1CC(=O)NC(=O)C1 (centres undefined) [RAZOXANE],> 30,> 30,> 30,> 30,–,–,–,–,–
O=C1/C(=C2\Nc3ccc(S(=O)(=O)O)cc3C2=O)Nc2ccc(S(=O)(=O)O)cc21 [INDIGOTINDISULFONATE],> 30,> 30,> 30,2.83,–,–,–,–,–
OC[C@H]1O[C@@H](c2ccc(F)c(Cc3cc4ccccc4s3)c2)[C@H](O)[C@@H](O)[C@@H]1O [IPRAGLIFLOZIN],7.69,> 30,> 30,> 30,–,–,–,–,–
CCn1cc(C(=O)O)c(=O)c2cc3c(cc21)OCO3 [OXOLINIC ACID],> 30,> 30,> 30,> 30,–,–,–,–,–
CC[C@H](c1ccc(O)cc1)[C@@H](CC)c1ccc(O)cc1 [HEXESTROL],3.31,> 30,1.85,> 30,–,–,–,–,–
CCOC(=O)C1=C[C@@H](OC(CC)CC)[C@H](NC(C)=O)[C@@H](N)C1 [OSELTAMIVIR],> 30,> 30,> 30,> 30,–,–,–,–,–
CN1CCC(=C2c3ccccc3Sc3ccccc32)CC1 [PIMETHIXENE],11.2,0.0422,> 30,> 30,–,–,–,–,–
OC[C@@H](O)[C@@H](O)[C@H](O)[C@@H](O)CO [SORBITOL],> 30,> 30,> 30,> 30,–,–,–,–,–
C[C@H]1O[C@@H](n2cc(F)c(=O)[nH]c2=O)[C@H](O)[C@@H]1O [DOXIFLURIDINE],> 30,> 30,> 30,> 30,–,–,–,–,–
CCc1nc(C(N)=O)c(Nc2ccc(N3CCC(N4CCN(C)CC4)CC3)c(OC)c2)nc1NC1CCOCC1 [GILTERITINIB],> 30,> 30,> 30,> 30,–,–,–,–,–
CC[C@H]1OC(=O)[C@H](C)C(=O)[C@H](C)[C@@H](O[C@@H]2O[C@H](C)C[C@H](N(C)C)[C@H]2O)[C@](C)(OC)C[C@@H](C)C(=O)[C@H](C)[C@H]2N(CCCCn3cnc(-c4cccnc4)c3)C(=O)O[C@]12C [TELITHROMYCIN],> 30,> 30,> 30,> 30,–,–,–,–,–
CN1CCCCC1CCN1c2ccccc2Sc2ccc([S+](C)[O-])cc21 (centres undefined) [MESORIDAZINE],19.8,2.59,> 30,> 30,–,–,–,–,–
N[C@@H](CO)C(=O)O [SERINE],> 30,> 30,> 30,> 30,–,–,–,–,–
OC[C@H]1O[C@@H](c2ccc(Cl)c(Cc3ccc(O[C@H]4CCOC4)cc3)c2)[C@H](O)[C@@H](O)[C@@H]1O [EMPAGLIFLOZIN],> 30,> 30,> 30,> 30,–,–,–,–,–
CC(=O)Oc1cc(C(F)(F)F)ccc1C(=O)O [TRIFLUSAL],> 30,> 30,> 30,> 30,–,–,–,–,–
[H]/N=C(\N/C(=N/[H])Nc1ccc(Cl)cc1)NC(C)C [PROGUANIL],12.5,11.9,> 30,> 30,–,–,–,–,–
CN(C)CC[C@@H](c1ccc(Cl)cc1)c1ccccn1 [DEXCHLORPHENIRAMINE],–,–,–,–,> 30,> 30,28,> 30,> 30
CN1C[C@H](C(=O)N[C@]2(C)O[C@@]3(O)[C@@H]4CCCN4C(=O)[C@H](Cc4ccccc4)N3C2=O)C=C2c3cccc4[nH]cc(c34)C[C@H]21 [ERGOTAMINE],–,–,–,–,> 30,> 30,3.8,> 30,0.22
C[C@@H]1C[C@H]2[C@@H]3CCC4=CC(=O)C=C[C@]4(C)[C@@]3(Cl)[C@@H](O)C[C@]2(C)[C@@]1(OC(=O)c1ccco1)C(=O)CCl [MOMETASONE FUROATE],> 30,> 30,–,> 30,–,–,–,–,–
CNC(=O)Oc1cccc2ccccc12 [CARBARIL],> 30,> 30,14.3,> 30,–,–,–,–,–
N#Cc1ccc2c(c1)N(CCCN1CCC(O)CC1)c1ccccc1S2 [PERICIAZINE],–,–,22.1,> 30,–,–,–,–,–
CCN(CC)CCNC(=O)c1c(C)[nH]c(/C=C2\C(=O)Nc3ccc(F)cc32)c1C [SUNITINIB],–,–,–,–,> 10,4.3,2.25,7.8,> 30
N[C@@H](CS)C(=O)O [CYSTEINE],> 30,> 30,> 30,> 30,–,–,–,–,–
C/C=C/C/C=C/CCC(=O)[C@H]1O[C@H]1C(N)=O [CERULENIN],> 30,> 30,> 30,> 30,–,–,–,–,–
CC(CCc1ccccc1)NCC(O)c1ccc(O)c(C(N)=O)c1 (centres undefined) [LABETALOL],2.22,–,> 30,> 30,–,–,–,–,–
CC(C)(C)NCC(O)c1cc(O)cc(O)c1 (centres undefined) [TERBUTALINE],–,–,–,–,> 30,> 30,–,> 30,–
